± gives the standard deviation of the averaged measurements.

Compound in one test: O=C(O)C1(C(=O)O)CCC1.[NH2-].[NH2-].[Pt+2] [CARBOPLATIN]
Nature of the test: area under dose-response curve of surviving fraction (unscaled, Aref=0) (surviving fraction x log10(nM)); higher = more resistant. To be noted: exposure time: 5 days; dose range 0.5-1000 nM. Put shortly: (§1)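 Tumour cell lines in 384-well plates were exposed to eight inhibitor concentrations, from 0.5 to 1000 nM, for five days, and viability was read by CellTiter-Glo luminescence in three screens per line. Signals were normalised to DMSO-only wells, and 3-parameter logistic regression in the drc R package fitted dose-response survival curves to the surviving fractions. Area under the curve is given as the unscaled activity area. That area is taken over log10 dose with Aref = 0.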

Compound in another test: Cc1ccc(-c2cc(C(F)(F)F)nn2-c2ccc(S(N)(=O)=O)cc2)cc1 [CELECOXIB]
The test is described as above. Particulars: exposure time: 5 days; dose range 0.5-1000 nM. Put shortly:
as §1

Compound in the next test: COCC[n+]1c2c(n(Cc3cnccn3)c1C)C(=O)c1ccccc1C2=O [YM155]
Described as above. To be noted: exposure time: 5 days; dose range 0.5-1000 nM. Put shortly: as §1

Compound in test [1]: T1, CC[C@@]1(O)C(=O)OCc2c1cc1n(c2=O)Cc2cc3ccccc3nc2-1 [CAMPTOTHECIN]
The test is described as above. Particulars: exposure time: 5 days; dose range 0.5-1000 nM. The gist of the method: as §1

Compound in test [2]: CC(=O)c1c(C)c2cnc(Nc3ccc(N4CCNCC4)cn3)nc2n(C2CCCC2)c1=O
The description is as above. To be noted: exposure time: 5 days; dose range 0.5-1000 nM. Put shortly: as §1

Compound in another test: CC(=O)O[C@H]1C(=O)[C@@]2(C)[C@H]([C@H](OC(=O)c3ccccc3)[C@]3(O)C[C@H](OC(=O)[C@H](O)[C@@H](NC(=O)c4ccccc4)c4ccccc4)C(C)=C1C3(C)C)[C@]1(OC(C)=O)CO[C@@H]1C[C@@H]2O [PACLITAXEL]
The test is described as above. To be noted: exposure time: 5 days; dose range 0.5-1000 nM. Put shortly: as §1

Compound in test [3]: CC(=O)NCC(=O)N1[C@@H]2CC[C@H]1c1ccc(Nc3ncc(C(F)(F)F)c(NC4CCC4)n3)cc12
The test is described as above. Particulars: exposure time: 5 days; dose range 0.5-1000 nM. The gist of the method:
as §1

Compound in the next test: C[C@]1(O)C[C@@H](c2nc(-c3ccc4ccc(-c5ccccc5)nc4c3)c3c(N)nccn32)C1 [OSI-906]
Described as above. To be noted: exposure time: 5 days; dose range 0.5-1000 nM. The gist of the method: as §1

Compound in test [4]: T1, CAMPTOTHECIN
Nature of the test: surviving fraction relative to DMSO-only wells; higher = less growth inhibition. To be noted: exposure time: 5 days. Put shortly:
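Each tumour cell line was screened three times, and only lines with replicate Pearson r >0.7 and median Z' >0.3 were kept. Cells in log phase were seeded at 250–500 per well in 384-well plates, left 24 hours, then exposed continuously for five days to inhibitors at 0.5, 1, 5, 10, 50, 100, 500 and 1000 nM. Viability was read as CellTiter-Glo luminescence, with surviving fraction normalised to the median of DMSO-only wells.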

Compound in the next test: COc1cc2ncnc(Nc3ccc(F)c(Cl)c3)c2cc1OCCCN1CCOCC1 [GEFITINIB]
In words: area under dose-response curve of surviving fraction (unscaled, Aref=0) (surviving fraction x log10(nM)); higher = more resistant. Particulars: exposure time: 5 days; dose range 0.5-1000 nM. The gist of the method: as §1

Consider ZR751 BREAST, for which the “area under dose-response curve” value was found to be 3.96 in the test with CARBOPLATIN; 3.57 with CELECOXIB; 1.2 with YM155; 1.47 with CAMPTOTHECIN [1]; 3.47 in test [2]; 1.6 with PACLITAXEL. Further, the “area under dose-response curve” value was determined as 2.96 in test [3] and 2.62 with OSI-906. Further, the surviving fraction with CAMPTOTHECIN [4] (0.5 nM) came to 0.774 ± 0.073; in the test with CAMPTOTHECIN [4] (1 nM) it was 0.823 ± 0.12; with CAMPTOTHECIN [4] (5 nM), 0.693 ± 0.13; with CAMPTOTHECIN [4] (10 nM), 0.586 ± 0.099; with CAMPTOTHECIN [4] (50 nM), 0.266 ± 0.024; with CAMPTOTHECIN [4] (100 nM) it was 0.223 ± 0.005. For the same test system, the surviving fraction with CAMPTOTHECIN [4] (500 nM) was 0.121 ± 0.0096; with CAMPTOTHECIN [4] (1000 nM) it was 0.0797 ± 0.0025.
For the test system SG27 HEADNECK, the “area under dose-response curve” value was determined as 3.6 in the test with CARBOPLATIN; 3.88 in the test with CELECOXIB; 1.43 with YM155; 3.65 with GEFITINIB; 2.66 with CAMPTOTHECIN [1]; 3.52 in [2]. For the same test system, the “area under dose-response curve” value in the test with PACLITAXEL came out at 3.02; in test [3], 3.14. Further, the surviving fraction came out at 0.702 ± 0.062 with CAMPTOTHECIN [4] (0.5 nM); 0.888 ± 0.19 with CAMPTOTHECIN [4] (1 nM); 0.867 ± 0.089 with CAMPTOTHECIN [4] (5 nM); 0.906 ± 0.021 in the test with CAMPTOTHECIN [4] (10 nM); 0.724 ± 0.034 in the test with CAMPTOTHECIN [4] (50 nM); 0.928 ± 0.096 with CAMPTOTHECIN [4] (100 nM). Also, the surviving fraction worked out at 0.482 ± 0.055 in the test with CAMPTOTHECIN [4] (500 nM) and 0.203 ± 0.025 in the test with CAMPTOTHECIN [4] (1000 nM).
Take 22RV1 PROSTATE: the “area under dose-response curve” value with CARBOPLATIN is 3.48; with YM155, 1.58; in the test with GEFITINIB it was 3.34; with CAMPTOTHECIN [1] it was 1.47; in [2] it was 3.53; in the test with PACLITAXEL, 0.962. Besides, the “area under dose-response curve” value in test [3] amounted to 2.6; with OSI-906, 3.1. Moreover, the surviving fraction with CAMPTOTHECIN [4] (0.5 nM) is 0.938 ± 0.095; in the test with CAMPTOTHECIN [4] (1 nM), 0.957 ± 0.053; with CAMPTOTHECIN [4] (5 nM) it was 0.586 ± 0.044; with CAMPTOTHECIN [4] (10 nM), 0.275 ± 0.022; in the test with CAMPTOTHECIN [4] (50 nM), 0.162 ± 0.16; with CAMPTOTHECIN [4] (100 nM), 0.189 ± 0.22. Further, the surviving fraction with CAMPTOTHECIN [4] (500 nM) and with CAMPTOTHECIN [4] (1000 nM) was 0.24 ± 0.28 throughout.
Turning to SUM149 BREAST, the “area under dose-response curve” value with CARBOPLATIN was determined as 3.13; with CELECOXIB, 3.68; with YM155 it was 1.31; with GEFITINIB, 2.81; in test [2] it was 3.23; with PACLITAXEL, 0.407. The “area under dose-response curve” value in test [3] worked out at 2.36; in the test with OSI-906, 2.61. Moreover, the surviving fraction was found to be 0.126 ± 0.0081 with CAMPTOTHECIN [4] (10 nM); 0.102 ± 0.0081 in the test with CAMPTOTHECIN [4] (50 nM); 0.0913 ± 0.0049 with CAMPTOTHECIN [4] (100 nM); 0.048 ± 0.0052 in the test with CAMPTOTHECIN [4] (500 nM); 0.0367 ± 0.0055 with CAMPTOTHECIN [4] (1000 nM).
In the case of CME SYNOVIAL, the “area under dose-response curve” value in the test with CARBOPLATIN came out at 4.52; with CELECOXIB it was 4.61; in the test with YM155, 1.3; with CAMPTOTHECIN [1] it was 0.288; in test [2], 4.13; with PACLITAXEL, 1.47. Moreover, in [3], the “area under dose-response curve” value stood at 2.49. In addition, the surviving fraction with CAMPTOTHECIN [4] (0.5 nM) amounted to 0.013 ± 0.0036; with CAMPTOTHECIN [4] (1 nM), 0.14 ± 0.019; with CAMPTOTHECIN [4] (5 nM), 0.0177 ± 0.00058; with CAMPTOTHECIN [4] (10 nM) it was 0.0897 ± 0.018; with CAMPTOTHECIN [4] (50 nM), 0.028 ± 0.0027; with CAMPTOTHECIN [4] (100 nM) it was 0.152 ± 0.017. For the same test system, the surviving fraction came to 0.1177 ± 0.00058 with CAMPTOTHECIN [4] (500 nM) and 0.229 ± 0.0051 with CAMPTOTHECIN [4] (1000 nM).
As to SJSA1 BONE, the “area under dose-response curve” value was found to be 4.73 with CARBOPLATIN; 5.36 with CELECOXIB; 5.19 with YM155; 3.83 in the test with CAMPTOTHECIN [1]; 3.43 in test [2]; 1.01 with PACLITAXEL. Moreover, the “area under dose-response curve” value in [3] is 3.02. In addition, the surviving fraction was found to be 1.18 ± 0.043 with CAMPTOTHECIN [4] (0.5 nM); 1.2 ± 0.06 with CAMPTOTHECIN [4] (1 nM); 1.01 ± 0.15 with CAMPTOTHECIN [4] (5 nM); 1.2 ± 0.017 with CAMPTOTHECIN [4] (10 nM); 1.25 ± 0.084 with CAMPTOTHECIN [4] (50 nM); 1.11 ± 0.093 in the test with CAMPTOTHECIN [4] (100 nM). Besides, the surviving fraction with CAMPTOTHECIN [4] (500 nM) was 1.14 ± 0.24; with CAMPTOTHECIN [4] (1000 nM), 1.18 ± 0.083.
With NOS1 BONE, the “area under dose-response curve” value stood at 3.95 with CARBOPLATIN; 3.88 with CELECOXIB; 1.08 with YM155; 1.96 with CAMPTOTHECIN [1]; 3.53 in test [2]; 1.13 with PACLITAXEL. Further, in the test with OSI-906, the “area under dose-response curve” value was found to be 2.83. Further, the surviving fraction in the test with CAMPTOTHECIN [4] (0.5 nM) worked out at 0.833 ± 0.15; in the test with CAMPTOTHECIN [4] (1 nM), 0.867 ± 0.02; with CAMPTOTHECIN [4] (5 nM), 0.663 ± 0.067; with CAMPTOTHECIN [4] (10 nM), 0.494 ± 0.059; with CAMPTOTHECIN [4] (50 nM), 0.636 ± 0.037; with CAMPTOTHECIN [4] (100 nM) it was 0.552 ± 0.036. In addition, the surviving fraction amounted to 0.392 ± 0.039 in the test with CAMPTOTHECIN [4] (500 nM) and 0.337 ± 0.026 in the test with CAMPTOTHECIN [4] (1000 nM).
As for SUM44 BREAST, the “area under dose-response curve” value with CARBOPLATIN was found to be 3.73; in the test with CELECOXIB, 4.41; with YM155, 2.05; with GEFITINIB, 4.14; with CAMPTOTHECIN [1], 2.82; in [2], 3.41. Besides, the “area under dose-response curve” value stood at 1.04 with PACLITAXEL and 3.75 in [3]. The surviving fraction with CAMPTOTHECIN [4] (0.5 nM) worked out at 0.808 ± 0.15; with CAMPTOTHECIN [4] (1 nM), 0.813 ± 0.082; with CAMPTOTHECIN [4] (5 nM), 0.835 ± 0.11; with CAMPTOTHECIN [4] (10 nM), 0.846 ± 0.056; in the test with CAMPTOTHECIN [4] (50 nM), 0.985 ± 0.12; with CAMPTOTHECIN [4] (100 nM), 0.927 ± 0.096. The surviving fraction came to 0.326 ± 0.038 with CAMPTOTHECIN [4] (500 nM) and 0.231 ± 0.048 with CAMPTOTHECIN [4] (1000 nM).
As for S68 BREAST, the “area under dose-response curve” value was 3.8 with CARBOPLATIN; 3.75 with CELECOXIB; 1.4 with YM155; 2.99 with GEFITINIB; 1.05 with CAMPTOTHECIN [1]; 0.758 with PACLITAXEL. Further, the “area under dose-response curve” value turned out to be 2.38 in test [3] and 2.83 in the test with OSI-906. In addition, the surviving fraction with CAMPTOTHECIN [4] (0.5 nM) was 0.576 ± 0.087; in the test with CAMPTOTHECIN [4] (1 nM), 0.544 ± 0.073; with CAMPTOTHECIN [4] (5 nM) it was 0.442 ± 0.11; with CAMPTOTHECIN [4] (10 nM), 0.342 ± 0.041; with CAMPTOTHECIN [4] (50 nM) it was 0.284 ± 0.045; in the test with CAMPTOTHECIN [4] (100 nM), 0.218 ± 0.021. Besides, the surviving fraction with CAMPTOTHECIN [4] (500 nM) turned out to be 0.0747 ± 0.012; with CAMPTOTHECIN [4] (1000 nM), 0.0687 ± 0.0057.

The record behind these values is the supplement of paper PMC6045584.
